Test results taken from the OPERA property sets (Mansouri et al. 2018).

Row | Compound | logP
1 | CC(C)C(=O)NCCNCC(O)COCCOc1ccccc1 (stereo not given) | 0.48
2 | CC(C)C(=O)NCCNCC(O)COCC=Cc1ccccc1 (stereo not given) | 0.51
3 | CC(C)(C)NCC(O)COc1ccccc1 (stereo not given) | 1.5
4 | CC(C)C(=O)NCCNCC(O)COC1CCCc2ccccc21 (stereo not given) | 1.99
5 | O=C(Cc1ccccc1)NCCNCC(O)COc1ccccc1 (stereo not given) | 0.63
6 | CC(C)(C)NCC(O)COCCOc1ccccc1 (stereo not given) | 2.35
7 | O=C(Cc1ccccc1)NCCNCC(O)COCCOc1ccccc1 (stereo not given) | 0.75
8 | O=C(Cc1ccccc1)NCCNCC(O)COCC=Cc1ccccc1 (stereo not given) | 1.76
9 | CC(C)C(=O)NCCNCC(O)COc1ccccc1 (stereo not given) | 1.14
10 | O=C(Cc1ccccc1)NCCNCC(O)OCc1ccccc1 (stereo not given) | 1.05
11 | CC(C)(C)NCC(O)COCc1ccccc1 (stereo not given) | 1.7
12 | O=C(Cc1ccccc1)NCCNCC(O)COCCCc1ccccc1 (stereo not given) | 1.62
13 | O=C(Cc1ccccc1)NCCNCC(O)COC1CCCc2ccccc21 (stereo not given) | 1.68
14 | CC(C)(C)NCC(O)COCC=Cc1ccccc1 (stereo not given) | 2.29
15 | CC(C)C(=O)NCCNCC(O)COCc1ccccc1 (stereo not given) | 0.63
16 | O=C(Cc1ccccc1)NCCNCC(O)COCCc1ccccc1 (stereo not given) | 1.24
17 | CC(C)(C)NCC(O)COC1CCCc2ccccc21 (stereo not given) | 3.55

Results, then the compound that gave them:

Row | logP | Compound
18 | 1.76 | CC(C)NCC(O)COCCc1ccccc1 (stereo not given)
19 | 2.95 | CC(C)NCC(O)COCCCC(C)c1ccccc1 (stereo not given)
20 | 1.63 | CC(C)NCC(O)COCCOc1ccccc1 (stereo not given)
21 | 2.15 | CC(C)NCC(O)COCC=Cc1ccccc1 (stereo not given)
22 | 2.52 | CC(C)(C)NCC(O)COCCc1ccccc1 (stereo not given)
23 | 1.25 | CC(C)C(=O)NCCNCC(O)COCCCc1ccccc1 (stereo not given)
24 | 1.62 | CC(C)NCC(O)COCc1ccccc1 (stereo not given)
25 | 0.95 | CC(C)C(=O)NCCNCC(O)COCCc1ccccc1 (stereo not given)
